# Measurements from article PMC7105723, “A Ganoderma-Derived Compound Exerts Inhibitory Effect Through Formyl Peptide Receptor 2” (Frontiers in Pharmacology, 2020).
# Molecular target: T1, formyl peptide receptor 2 (FPR2) (Homo sapiens, UniProt P25090)
# T1 construct: human FPR2 stably expressed in RBL-2H3 cells; FPR2-ICL3-FlAsH/C-terminal ECFP in HEK-293 cells for FRET
# T1 sequence (P25090 1-351): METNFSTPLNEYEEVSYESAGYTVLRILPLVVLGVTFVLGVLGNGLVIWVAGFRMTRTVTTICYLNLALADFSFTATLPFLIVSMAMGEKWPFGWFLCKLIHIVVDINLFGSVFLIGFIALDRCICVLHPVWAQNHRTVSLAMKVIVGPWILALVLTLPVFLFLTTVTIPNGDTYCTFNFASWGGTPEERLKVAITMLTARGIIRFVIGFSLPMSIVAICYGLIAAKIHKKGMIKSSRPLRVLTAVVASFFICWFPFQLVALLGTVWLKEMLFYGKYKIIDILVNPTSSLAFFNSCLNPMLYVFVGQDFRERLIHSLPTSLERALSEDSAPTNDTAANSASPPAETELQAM
# Assay: competition with WK(FITC)YMVm on RBL-FPR2 cells by flow cytometry (partial); FlAsH FRET conformational change
# Format: cell-based
smiles,measurement,value
"CC(C)=CCC/C(C)=C/CC/C(=C/Cc1cc(O)ccc1O)CO [C18, ganomycin F]",IC50,3.2 µM
